Tests used:
[1] = target: CDK7/Cyclin H/MNAT1 (Homo sapiens, UniProt P50613); experiment: Inhibition of CDK7/Cyclin H/MNAT1 kinase activity (ADP-Glo); assay type: biochemical; conditions: mean value from several measurements; read-out: IC50 CDK7/Cyclin H/MNAT
Method: (§1) Measurements were carried out in a 5 μl reaction volume using a 384-well plate (Corning Inc., order no. 4513). The analyzed substances were titrated from 50 μM in increments of 4 at 11 concentration points in a normal strength kinase buffer A (Thermo Fisher Scientific Inc, cat. no. PV3189) supplemented with DTT (Sigma, orde. no. 646563-10X.5ML) and prepared with water (Panreac, order no. 701074). Kinase was diluted in an analogous buffer, mixed with test compounds in plate wells and preincubated for 10 minutes at 25° C. Following incubation, a mixture of reaction substrate (CDKtide (SignalChem, order no. C06-58) or Histone H1 (SignalChem, order no. H10-54N) or PDKtide (SignalChem, order no. P10-58) and ATP (SignalChem, order no. V915B) prepared on a normal strength kinase buffer A was added. 1% solution of dimethyl sulfoxide (DMSO) (Sigma-Aldrich, order no. D2438) in the reaction volume was used as a negative control. The final concentrations of all reaction components are shown in Table 5. The plate was centrifuged at 400 rcf (Eppendorf, 5804 R) for 1 minute and incubated for 40-60 minutes at 25° C. The amount of ATP consumed in the kinase reaction was then measured using the ADP-Glo™ detection system. Luminescence signal was measured using Spark 20M tablet multifunction reader (Tecan Group Ltd, Switzerland). IC50 value was calculated using Magellan 7.2 (Tecan Group Ltd, Switzerland) by approximating experimental points by four-parameter model with the optimization by Levenberg-Marquardt:
(§2) [formula] • where A is the upper asymptote; D is the lower asymptote; C is IC50, half-maximal inhibitory concentration of kinase, nM; B is the curvature (slope).

[2] = target: CDK2/Cyclin A (Homo sapiens, UniProt P24941); experiment: Inhibition of CDK2/Cyclin A kinase activity (ADP-Glo); assay type: biochemical; conditions: mean value from several measurements; read-out: IC50 CDK2/Cyclin A
Method: as §1, §2

[3] = target: CDK9/Cyclin K (Homo sapiens, UniProt P50750); experiment: Inhibition of CDK9/Cyclin K kinase activity (ADP-Glo); assay type: biochemical; conditions: mean value from several measurements; read-out: IC50 CDK9/Cyclin K
CDK9/Cyclin K, sequence (P50750 whole entry): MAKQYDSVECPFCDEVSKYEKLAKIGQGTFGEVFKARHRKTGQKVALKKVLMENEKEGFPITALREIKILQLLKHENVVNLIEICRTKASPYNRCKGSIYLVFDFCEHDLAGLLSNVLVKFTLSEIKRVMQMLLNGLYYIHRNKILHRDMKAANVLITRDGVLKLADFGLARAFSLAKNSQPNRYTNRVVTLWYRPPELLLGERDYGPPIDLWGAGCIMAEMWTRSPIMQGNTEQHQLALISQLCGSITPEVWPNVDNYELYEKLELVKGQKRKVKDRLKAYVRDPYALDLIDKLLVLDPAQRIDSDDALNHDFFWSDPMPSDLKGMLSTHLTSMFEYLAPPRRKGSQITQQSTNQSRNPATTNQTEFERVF
CDK9/Cyclin K, sequence (O75909 whole entry partner): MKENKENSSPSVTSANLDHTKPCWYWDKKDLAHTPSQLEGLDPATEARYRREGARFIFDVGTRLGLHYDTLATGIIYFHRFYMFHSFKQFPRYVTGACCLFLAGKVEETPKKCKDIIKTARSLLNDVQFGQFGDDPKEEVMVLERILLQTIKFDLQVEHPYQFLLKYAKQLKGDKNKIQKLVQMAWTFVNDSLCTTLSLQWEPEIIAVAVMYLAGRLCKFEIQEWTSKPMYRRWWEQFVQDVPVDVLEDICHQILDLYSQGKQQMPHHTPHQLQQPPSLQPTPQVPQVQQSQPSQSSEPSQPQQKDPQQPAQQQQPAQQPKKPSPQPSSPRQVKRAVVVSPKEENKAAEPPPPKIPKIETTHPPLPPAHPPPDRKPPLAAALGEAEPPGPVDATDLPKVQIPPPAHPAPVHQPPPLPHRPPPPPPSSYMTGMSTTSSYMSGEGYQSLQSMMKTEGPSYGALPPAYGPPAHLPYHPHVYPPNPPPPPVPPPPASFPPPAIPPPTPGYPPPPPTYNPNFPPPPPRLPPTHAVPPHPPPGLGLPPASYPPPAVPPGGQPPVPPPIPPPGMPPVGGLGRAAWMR
Method: as §1, §2

[4] = test system: MDA-MB-468 (triple negative breast cancer); experiment: Antiproliferative assay on MDA-MB-468 cells (AlamarBlue, 96 h); assay type: cell-based; conditions: Homo sapiens, mean value from several measurements
Method: The antiproliferative activity of CDK7 inhibitors according to the present invention was evaluated in a cell test using continuous cell cultures: MDA-MB-468 (triple negative breast cancer, ATCC® HTB-132™) and NCl-H82 (small cell lung cancer, ATCC® HTB-175™) using a viable AlamarBlue dye (Thermo Fisher Scientific Inc, order no. DAL1100). The cells were grown in DMEM (PanEco, order no. C330π) and RPMI-1640 (PanEco, order no. C330π), respectively. The basal growth medium was enriched with L-glutamine at a concentration of 2 mM (PanEco, order no. Φ032) and 10% fetal bovine serum (Gibco, order no. 16140-071). The night before measurement, MDA-MB-468 adherent cells were detached from plastic with a solution of trypsin-EDTA (PanEco, order no. Π039π), the solution was then inactivated by a DMEM complete medium, centrifuged at 1000 RPM (Eppendorf, 5804 R), a suspension of cells was prepared in a DMEM complete medium, introduced into 96-well culture plates (Corning Inc, order no. 3599) at 8×10^3 cells in 100 μl of medium per well. The next day, test compounds were dissolved in DMSO and diluted with a DMEM complete medium to a final concentration ranging from 50 μM to 10 pM. Diluted compounds in a volume of 50 μl were introduced into the plate wells with cells in triplicates (the final concentration of DMSO was no more than 1%) and incubated at 37° C. in an incubator with 5% CO2 for 96 hours. NCl-H82 suspension cell line was prepared on the day of the analysis. 10×10^3 cells in 100 μl of an RPMI-1640 complete medium were added to each well of a 96-well plate. The procedure for sample dilution is as described above. Cells with test compounds were incubated at 37° C. in an incubator with 5% CO2 for 120 hours. Following incubation, […] of AlamarBlue reagent (Thermo Fisher Scientific Inc., order no. DAL1100) was added to the wells, the contents of the plates were stirred in an orbital shaker (Biosan, Latvia), then further incubated for 5.5-6 hours at 37° C. in an incubator with 5% CO2. The number of viable cells was detected using the Infinite M200Pro microplate spectrophotometer (Tecan Group Ltd, Switzerland) by way of measuring a fluorescent signal at an excitation wavelength (λEx) of 540 nm and an emission wavelength (λEm) of 590 nm.
IC50 value was calculated using the Magellan software (Tecan Group Ltd, Switzerland) by approximating experimental points by four-parameter model with the optimization by Levenberg-Marquardt: […]

[5] = General cytotoxicity on primary differentiated HepaRG cells (72 h); assay type: cell-based; conditions: human, general toxicity, mean value from several measurements
Text: General cytotoxicity of CDK7 inhibitors according to the present invention was investigated using primary differentiated HepaRG cells (Biopredic Int, order no. HPR101). A week before the measurement, the cells were thawed and maintained in Basal hepatic cell medium (Biopredic Int, order no. MIL700079) supplemented with HepaRG maintenance/metabolism medium supplement with antibiotics (Biopredic Int, order no. ADD620C). The medium in vials with cells was changed every 2-3 days. The night before the test, the cells were plated in wells of 96-well plates (Corning Inc., order no. 3599) at 25×10^3 cells in 100 μl of medium per well. The next day, test compounds were introduced into plate wells with cells, untitrated at a concentration ranging from 200 μM to 0.2 nM, and incubated for 72 hours. Cell viability was assessed as described above.

CDK7/Cyclin H/MNAT1, sequence (P50613 whole entry): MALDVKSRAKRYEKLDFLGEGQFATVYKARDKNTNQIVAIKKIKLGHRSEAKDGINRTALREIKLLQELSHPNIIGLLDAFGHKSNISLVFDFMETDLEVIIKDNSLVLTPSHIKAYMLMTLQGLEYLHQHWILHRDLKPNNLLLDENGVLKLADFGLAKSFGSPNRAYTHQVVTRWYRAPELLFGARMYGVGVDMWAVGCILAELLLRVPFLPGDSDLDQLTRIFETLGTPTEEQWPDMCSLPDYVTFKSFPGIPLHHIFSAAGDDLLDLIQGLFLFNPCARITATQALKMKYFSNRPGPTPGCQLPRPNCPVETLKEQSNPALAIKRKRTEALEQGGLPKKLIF
CDK7/Cyclin H/MNAT1, sequence (P51946 whole entry partner): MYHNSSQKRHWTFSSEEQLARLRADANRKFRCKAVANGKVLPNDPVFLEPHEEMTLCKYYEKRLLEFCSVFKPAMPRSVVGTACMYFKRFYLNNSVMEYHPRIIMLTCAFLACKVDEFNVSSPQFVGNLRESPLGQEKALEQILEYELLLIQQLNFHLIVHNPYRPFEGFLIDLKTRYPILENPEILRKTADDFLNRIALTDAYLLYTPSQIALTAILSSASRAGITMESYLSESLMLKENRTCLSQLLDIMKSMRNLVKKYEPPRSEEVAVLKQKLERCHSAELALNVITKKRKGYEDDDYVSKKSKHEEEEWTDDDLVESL
CDK7/Cyclin H/MNAT1, sequence (P51948 whole entry partner): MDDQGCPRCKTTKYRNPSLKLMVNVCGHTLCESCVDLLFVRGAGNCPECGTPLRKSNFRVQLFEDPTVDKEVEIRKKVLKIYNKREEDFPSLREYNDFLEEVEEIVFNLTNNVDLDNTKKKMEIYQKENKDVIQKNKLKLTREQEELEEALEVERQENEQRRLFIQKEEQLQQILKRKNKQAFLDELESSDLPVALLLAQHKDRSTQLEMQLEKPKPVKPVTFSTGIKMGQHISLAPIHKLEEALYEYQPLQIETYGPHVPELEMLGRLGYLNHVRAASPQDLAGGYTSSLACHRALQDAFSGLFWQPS

SMILES | IC50 [1] [µM] | IC50 [2] [µM] | IC50 [3] [µM] | IC50 [4] [µM] | CC50 at 72 h [5] [µM]
Nc1ccccc1Nc1nc(N[C@H]2CCCNC2)ncc1C(F)(F)F [CDK7_550, N4-(2-aminophenyl)-N2-[(3S)-piperidin-3-yl]-5-(trifluoromethyl) pyrimidine-2,4-diamine] | 0.05 to 0.2 | > 0.2 | – | > 1 | > 2
FC(F)(F)c1cnc(N[C@H]2CCCNC2)nc1Cc1ccccc1 [CDK7_766, 4-benzyl-N-[(3S)-piperidin-3-yl]-5-(trifluoromethyl) pyrimidin-2-amine] | 0.05 to 0.2 | > 0.2 | – | > 1 | > 2
FC(F)(F)c1cnc(N[C@H]2CCCNC2)nc1Oc1cccc2c1NCCC2 [CDK7_829, N-[(3S)-piperidin-3-yl]-4-(1,2,3,4-tetrahydroquin-olin-8-yloxy)-5-(trifluoromethyl) pyrimidin-2-amine] | – | – | – | > 1 | > 2
FC(F)(F)c1cnc(N[C@H]2CCCNC2)nc1Oc1cccc2cccnc12 [CDK7_830, N-[(3S)-piperidin-3-yl]-4-(quinolin-8-yloxy)-5-(trifluoromethyl) pyrimidin-2-amine] | – | – | – | > 1 | > 2
CP(C)(=O)c1ccccc1Oc1nc(N[C@H]2CCCNC2)ncc1C(F)(F)F [CDK7_897, 4-[2-(dimethylphos-phoryl)phenoxy]-N-[(3S)-piperidin-3-yl]-5-(trifluoromethyl) pyrimidin-2-amine] | – | > 0.2 | – | – | > 2
O=C1CN(c2nc(N[C@H]3CCCNC3)ncc2C(F)(F)F)c2ccccc2N1 [CDK7_900, 4-(2-{[(3S)-piperidin-3-yl]amino}-5-(trifluoromethyl)pyrimidin-4-yl)-1,2,3,4-tetrahydroquin-oxazolin-2-one] | – | – | – | – | > 2
CN(C)C(=O)c1c[nH]cc1-c1nc(N[C@H]2CCCNC2)ncc1C(F)(F)F [CDK7_991, N,N-dimethyl-4-(2-{[(3S)-piperidin-3-yl]amino}-5-(trifluoromethyl)py-rimidin-4-yl)-1H-pyrrole-3-carboxamide] | > 0.2 | – | – | – | –
CN1CCC[C@H](Nc2ncc(C(F)(F)F)c(-c3c[nH]c(C(=O)N(C)C)c3)n2)C1 [CDK7_1019] | 0.005 to 0.05 | > 0.2 | > 0.2 | – | > 2
Cn1c(-c2cc(-c3nc(N[C@H]4CCCNC4)ncc3C(F)(F)F)c[nH]2)nc2ccccc21 [CDK7_1124, 4-[5-(1-methyl-1H-1,3-benzodiazol-2-yl)-1H-pyrrol-3-yl]-N-[(3S)-piperidin-3-yl]-5-(trifluoromethyl)py-rimidin-2-amine] | 0.005 to 0.05 | > 0.2 | > 0.2 | – | > 2

Continued, in another order:

IC50 [1] [µM] | IC50 [2] [µM] | IC50 [3] [µM] | IC50 [4] [µM] | SMILES | CC50 at 72 h [5] [µM]
0.005 to 0.05 | > 0.2 | 0.05 to 0.2 | 0.1 to 1 | O=C(c1ccccc1)c1cc(-c2nc(N[C@H]3CCCNC3)ncc2C(F)(F)F)c[nH]1 [CDK7_535, 4-(5-benzoyl-1H-pyrrol-3-yl)-N-[(3S)-piperidin-3-yl]-5-(trifluoromethyl) pyrimidin-2-amine] | > 2
0.005 to 0.05 | > 0.2 | 0.005 to 0.05 | 0.1 to 1 | NC(=O)c1cc(-c2nc(N[C@H]3CCCNC3)ncc2C(F)(F)F)c[nH]1 [CDK7_537, 4-(2-{[(3S)-piperidin-3-yl]amino}-5-(trifluoromethyl)pyrimidin-4-yl)-1H-pyrrole-2-carboxamide] | 0.1 to 0.5
0.005 to 0.05 | > 0.2 | 0.05 to 0.2 | 0.1 to 1 | O=C(Nc1ccccc1)c1cc(-c2nc(N[C@H]3CCCNC3)ncc2C(F)(F)F)c[nH]1 [CDK7_538, N-phenyl-4-(2-{[(3S)-piperidin-3-yl]amino}-5-(trifluoromethyl)pyrimidin-4-yl)-1H-pyrrole-2-carboxamide] | 0.5 to 2
0.005 to 0.05 | > 0.2 | – | > 1 | FC(F)(F)c1cnc(N[C@H]2CCCNC2)nc1Oc1ccccc1 [CDK7_754, 4-phenoxy-N-[(3S)-piperidin-3-yl]-5-(trifluoromethyl) pyrimidin-2-amine] | > 2
0.005 to 0.05 | > 0.2 | – | > 1 | FC(F)(F)c1cnc(N[C@H]2CCCNC2)nc1-n1ccc2ccccc21 [CDK7_809, 4-(1H-indol-1-yl)-N-[(3S)-piperidin-3-yl]-5-(trifluoromethyl)py-rimidin-2-amine] | > 2
0.005 to 0.05 | > 0.2 | – | > 1 | FC(F)(F)c1cnc(N[C@H]2CCCNC2)nc1-n1cnc2ccccc21 [CDK7_810, 4-(1H-1,3-benzodiazol-1-yl)-N-[(3S)-piperidin-3-yl]-5-(trifluoromethyl)py-rimidin-2-amine] | > 2
0.005 to 0.05 | > 0.2 | > 0.2 | – | CN1CCc2c(-c3nc(N[C@H]4CCCNC4)ncc3C(F)(F)F)c[nH]c2C1=O [CDK7_843, 6-methyl-3-(2-{[(3S)-piperidin-3-yl]amino}-5-(trifluoromethyl)pyrimidin-4-yl)-1H,4H,5H,6H, 7H-pyrrolo[2,3-c]pyridin-7-one] | –
0.005 to 0.05 | > 0.2 | – | > 1 | CP(C)(=O)c1cccc(Nc2nc(N[C@H]3CCCNC3)ncc2C(F)(F)F)c1 [CDK7_888, N4-[3-(dimethylphos-phoryl)phenyl]-N2-[(3S)-piperidin-3-yl]-5-(trifluoromethyl) pyrimidine-2,4-diamine] | > 2
0.005 to 0.05 | > 0.2 | – | 0.1 to 1 | NS(=O)(=O)c1cccc(Nc2nc(N[C@H]3CCCNC3)ncc2C(F)(F)F)c1 [CDK7_891, 3-[(2-{[(3S)-piperidin-3-yl]amino}-5-(trifluoromethyl)pyrimidin-4-yl)amino] benzene-1-sulfonamide] | –
0.005 to 0.05 | > 0.2 | – | 0.1 to 1 | CC(=O)Nc1ccccc1Nc1nc(N[C@H]2CCCNC2)ncc1C(F)(F)F [CDK7_898, N-{2-[(2-{[(3S)-piperidin-3-yl]amino}-5-(trifluoromethyl)pyrimidin-4-yl)amino]phenyl} acetamide] | > 2
0.005 to 0.05 | – | – | – | O=c1[nH]cc(-c2nc(N[C@H]3CCCNC3)ncc2C(F)(F)F)c2ccccc12 [CDK7_921, 4-(2-{[(3S)-piperidin-3-yl]amino}-5-(trifluoromethyl)pyrimidin-4-yl)-1,2-dihydroisoquin-olin-1-one] | –

— patent US20260137698A1, “CYCLIN-DEPENDENT KINASE 7 INHIBITORS” (JOINT STOCK COMPANY «BIOCAD», priority 2022, published 2026)
